# PubChem BioAssay (NCI)
#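 Cultured in 96-well plates, cells were exposed to test compound for 48 hours across five concentrations. TGI: concentration producing complete growth inhibition.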
# Key:
# Assay in all cases: NCI-60 cell line screen, 48 h
# [1] = system: K-562 leukemia
# [2] = system: SF-295 CNS
# [3] = system: OVCAR-8 ovarian
# [4] = system: A549 NSCLC
# [5] = system: SW-620 colon
# [6] = system: SR leukemia
# [7] = system: DMS 273 small cell lung
# [8] = system: OVCAR-4 ovarian
# [9] = system: NCI-H23 lung
# [10] = system: SF-539 CNS
# [11] = system: KM20L2 colon
# [12] = system: SK-MEL-28 melanoma
# [13] = system: NCI-H226 lung
# [14] = system: EKVX NSCLC
# [15] = system: RXF-631 renal
# [16] = system: NCI-H522 lung
# [17] = system: U251 CNS
# [18] = system: OVCAR-5 ovarian
# [19] = system: NCI-H460 lung
# [20] = system: HOP-62 NSCLC
# [21] = system: HL-60(TB) leukemia
# [22] = system: SN12C renal
# [23] = system: HT29 colon
# [24] = system: HOP-92 NSCLC
# [25] = system: KM12 colon
# [26] = system: MOLT-4 leukemia
# [27] = system: TK-10 renal
# [28] = system: CCRF-CEM leukemia
# [29] = system: CAKI-1 renal
# [30] = system: UACC-257 melanoma
# [31] = system: HCT-116 colon
# [32] = system: ACHN renal
# [33] = system: SK-OV-3 ovarian
# [34] = system: M19-MEL melanoma
# [35] = system: XF 498 CNS
# [36] = system: RXF 393 renal
# [37] = system: 786-0 renal
# [38] = system: SNB-78 CNS
# [39] = system: SK-MEL-2 melanoma
# [40] = system: SF-268 CNS
# [41] = system: COLO 205 colon
# [42] = system: HCC-2998 colon
# [43] = system: LXFL 529 NSCLC
# [44] = system: LOX IMVI melanoma
# [45] = system: A498 renal
# [46] = system: IGROV1 ovarian
# [47] = system: MALME-3M melanoma
# [48] = system: HOP-18 NSCLC
# [49] = system: SNB-19 CNS
# [50] = system: HCT-15 colon
# [51] = system: DLD-1 colon
# [52] = system: UO-31 renal
# [53] = system: RPMI-8226 leukemia
# [54] = system: OVCAR-3 ovarian
# [55] = system: UACC-62 melanoma
# [56] = system: M14 melanoma
# [57] = system: SNB-75 CNS
# [58] = system: DMS 114 small cell lung
# [59] = system: SK-MEL-5 melanoma
compound,measurement,setting,value
COC(=O)C1C(C(=O)OC)C2C(=O)C3C(C(=O)OC)C(C(=O)OC)C3C(=O)C12 (centres undefined),TGI,[1],> 100 µM
same,TGI,[2],> 100 µM
same,TGI,[3],> 100 µM
same,TGI,[4],> 100 µM
same,TGI,[5],> 100 µM
same,TGI,[6],> 100 µM
same,TGI,[7],> 100 µM
same,TGI,[8],> 100 µM
same,TGI,[9],> 100 µM
same,TGI,[10],> 100 µM
same,TGI,[11],> 100 µM
same,TGI,[12],> 100 µM
same,TGI,[13],> 100 µM
same,TGI,[14],> 100 µM
same,TGI,[15],> 100 µM
same,TGI,[16],> 100 µM
same,TGI,[17],> 100 µM
same,TGI,[18],> 100 µM
same,TGI,[19],> 100 µM
same,TGI,[20],> 100 µM
same,TGI,[21],> 100 µM
same,TGI,[22],> 100 µM
same,TGI,[23],> 100 µM
same,TGI,[24],> 100 µM
same,TGI,[25],> 100 µM
same,TGI,[26],> 100 µM
same,TGI,[27],> 100 µM
same,TGI,[28],> 100 µM
same,TGI,[29],> 100 µM
same,TGI,[30],> 100 µM
same,TGI,[31],> 100 µM
same,TGI,[32],> 100 µM
same,TGI,[33],> 100 µM
same,TGI,[34],> 100 µM
same,TGI,[35],> 100 µM
same,TGI,[36],> 100 µM
same,TGI,[37],> 100 µM
same,TGI,[38],> 100 µM
same,TGI,[39],> 100 µM
same,TGI,[40],> 100 µM
same,TGI,[41],> 100 µM
same,TGI,[42],> 100 µM
same,TGI,[43],> 100 µM
same,TGI,[44],> 100 µM
same,TGI,[45],> 100 µM
same,TGI,[46],> 100 µM
same,TGI,[47],> 100 µM
same,TGI,[48],> 100 µM
same,TGI,[49],> 100 µM
COC(=O)/C=C(/C(=O)OC)C1(C)c2cc(C(=O)OC)c(C(=O)OC)c(N)c2C(=N)N1c1ccccc1 (centres undefined),TGI,[1],51.7 µM
same,TGI,[2],40.2 µM
same,TGI,[50],> 100 µM
same,TGI,[51],29.4 µM
same,TGI,[3],37.9 µM
same,TGI,[4],> 100 µM
same,TGI,[6],58.5 µM
same,TGI,[7],> 100 µM
same,TGI,[52],47.1 µM
same,TGI,[9],45.6 µM
same,TGI,[53],57.6 µM
same,TGI,[10],48.9 µM
same,TGI,[11],34.8 µM
same,TGI,[12],36.5 µM
same,TGI,[13],89.9 µM
same,TGI,[54],38.3 µM
same,TGI,[14],> 100 µM
same,TGI,[15],86.9 µM
same,TGI,[16],27.8 µM
same,TGI,[17],48.9 µM
same,TGI,[18],> 100 µM
same,TGI,[19],> 100 µM
same,TGI,[20],> 100 µM
same,TGI,[21],32.6 µM
same,TGI,[22],48.4 µM
same,TGI,[23],31.7 µM
same,TGI,[24],43.6 µM
same,TGI,[25],32.9 µM
same,TGI,[26],46.2 µM
same,TGI,[27],> 100 µM
same,TGI,[28],50.4 µM
same,TGI,[29],56.1 µM
same,TGI,[55],41.2 µM
same,TGI,[31],29.3 µM
same,TGI,[32],48.7 µM
same,TGI,[33],> 100 µM
same,TGI,[34],41.9 µM
same,TGI,[35],28.4 µM
same,TGI,[36],36.1 µM
same,TGI,[56],33.6 µM
same,TGI,[37],74.4 µM
same,TGI,[39],81.4 µM
same,TGI,[40],41 µM
same,TGI,[57],81 µM
same,TGI,[41],29.7 µM
same,TGI,[42],51.6 µM
same,TGI,[43],38.6 µM
same,TGI,[58],31.6 µM
same,TGI,[44],35 µM
same,TGI,[45],88.9 µM
same,TGI,[46],76.8 µM
same,TGI,[47],32.7 µM
same,TGI,[48],62 µM
same,TGI,[49],> 100 µM
CCc1ccccc1NC(=O)c1cccc([N+](=O)[O-])c1O,TGI,[1],> 100 µM
same,TGI,[2],32.2 µM
same,TGI,[50],> 100 µM
same,TGI,[51],> 100 µM
same,TGI,[3],> 100 µM
same,TGI,[4],> 100 µM
same,TGI,[5],> 100 µM
same,TGI,[7],86.2 µM
same,TGI,[8],> 100 µM
same,TGI,[52],71.6 µM
same,TGI,[9],72.5 µM
same,TGI,[53],> 100 µM
same,TGI,[10],> 100 µM
same,TGI,[11],93.3 µM
same,TGI,[59],33.9 µM
same,TGI,[12],> 100 µM
same,TGI,[13],88.7 µM
same,TGI,[54],> 100 µM
same,TGI,[14],> 100 µM
same,TGI,[15],> 100 µM
same,TGI,[16],62.6 µM
same,TGI,[17],> 100 µM
same,TGI,[18],65.1 µM
same,TGI,[19],71 µM
same,TGI,[20],58 µM
same,TGI,[21],> 100 µM
same,TGI,[22],> 100 µM
same,TGI,[23],> 100 µM
same,TGI,[24],45.4 µM
same,TGI,[25],48.6 µM
same,TGI,[26],> 100 µM
same,TGI,[28],> 100 µM
same,TGI,[29],> 100 µM
same,TGI,[30],77 µM
same,TGI,[55],> 100 µM
same,TGI,[31],87.5 µM
same,TGI,[32],62 µM
same,TGI,[33],> 100 µM
same,TGI,[34],82.4 µM
same,TGI,[35],57.9 µM
same,TGI,[36],45.1 µM
same,TGI,[56],> 100 µM
same,TGI,[37],> 100 µM
same,TGI,[38],94.2 µM
same,TGI,[40],> 100 µM
same,TGI,[57],71.8 µM
same,TGI,[41],31.4 µM
same,TGI,[42],> 100 µM
same,TGI,[43],> 100 µM
same,TGI,[58],51.5 µM
same,TGI,[44],55.6 µM
same,TGI,[45],88.2 µM
same,TGI,[46],> 100 µM
same,TGI,[47],> 100 µM
same,TGI,[48],> 100 µM
same,TGI,[49],> 100 µM
